Source: patent US3974281A, “5-Methyl-1-phenyl-2-(1H)-pyridone compositions and methods of use” (priority 1974, dated 1976)

Legend:
[1] = system: serum uric acid; experiment: Reduction in serum uric acid levels, dogs; type: in vivo, Beagle type dogs
Protocol: adult male and female Beagle type dogs from a closed colony weighing approximately 10 to 15 kilograms were utilized in the study. There were seven to nine dogs per group. AMR-69 was given orally in capsules to two groups and the third group received placebo capsules. […] The method for determining serum uric acid was performed using the Autotechnicon and the SMR-12 series of analyses. The specific method was based upon the procedure of Lofland et al. The mean serum uric acid values obtained with repeated doses of AMR-69 were as follows: […]

[2] = system: rabbit leg muscle; experiment: Local toxicity of intramuscular injection into rabbit leg muscle; type: in vivo, New Zealand white rabbits
Protocol: six healthy adult New Zealand white rabbits from a stock colony were injected into the large muscle mass of the leg with a 2.0 milliliter volume of 2.0% aqueous solution of AMR-69. The response was compared to the intramuscular injection of 2.0 ml. of an isotonic solution of sodium chloride. The animals were carefully observed for any evidence of discomfort for a period of three hours. […] Three hours after the injection, the animals were sacrificed and a careful dissection was made around the injection site of the: (1) skin, (2) subcutaneous fascia, and (3) muscle tissue for a gross examination under a low powder binocular mircroscope for any tissue reaction. […] Similarly, no tissue reaction was found following the intramuscular injection of the isotonic saline. One change noted in two rabbits reflected a hemorrhage from a vein which was cut as the hypodermic needle passed into the tissue. After the gross examination, the muscle masses were dissected out, removed and preserved in buffered formalin for histological examination.

Structure (SMILES): Cc1ccc(=O)n(-c2ccccc2)c1 [AMR-69, 5-methyl-1-phenyl-2-(1H)-pyridone]
- reduction in serum uric acid values versus control ([1]; oral capsules (P 0.05)): significantly different from the control
- mean serum uric acid, 25 mg/kg ([1]; repeated oral capsules 25 mg/kg, placebo 0.78 ± 0.046 mg.%, T = 2.84 (P<0.02)): 0.59 ± 0.051 mg.%
- mean serum uric acid, 75 mg/kg ([1]; repeated oral capsules 75 mg/kg, placebo 0.78 ± 0.046 mg.%, T = 2.40 (P<0.05)): 0.60 ± 0.049 mg.%
- microscopic examination of injection sites versus isotonic saline ([2]; 2.0 ml of 2.0% aqueous solution i.m.): no difference between those of the isotonic saline and the parenteral AMR-69
- histological examination of excised muscle ([2]; 2.0 ml of 2.0% aqueous solution i.m., stained tissue sections): absence of any edema, erythema, chemosis, or necrosis
- tissue reaction at injection site, gross examination (skin, subcutaneous fascia, muscle) ([2]; 2.0 ml of 2.0% aqueous solution i.m., three hours): No evidence of tissue reaction was observed
- discomfort after intramuscular injection ([2]; 2.0 ml of 2.0% aqueous solution, three hours): No discomfort was evident
